From patent US20030171382A1, “Pharmaceutical composition for regeneration of cirrhotic liver” (priority 2002, published 2003)
Where two headings read alike, the source gives them in different places. Marks after values point to notes of the source that are not given here.

How the values were obtained:
C/EBP-β and C/EBP-α [1] = conditions: primary cultured hepatocytes, 30 μM
C/EBP-β and C/EBP-α [2] = conditions: cirrhotic rats, 30 mg/kg, 3 times a week for 4 weeks
Experimental: With the importance of C/EBP in the regulation of liver regeneration in mind, the expression of C/EBP-β and C/EBP-α in oltipraz administered (30 mg/kg, 3 times a week for 4 weeks) cirrhotic rats were examined.

PCNA [3] = conditions: cirrhotic rats, 30 mg/kg, 3 times a week for 4 weeks; compared to cirrhotic rat without oltipraz
Experimental: PCNA immunochemical analysis is done with a specific antibody for PCNA (Santa Cruz Biotech). Analysis was carried out by indirect Avidin-Biotin-Alkaline-Phosphatase technique, according to the protocol provided by the manufacturer (InnoGenex). […] By using blocking serum, nonspecific antibody bindings were prevented. Then, in a humidified chamber, the slices were incubated with antibodies for 30 minutes at room temperature. After the incubation, Phosphate Buffered Saline (PBS) with 0.1% Tween-20 was used to rinse the slides. The slices were subjected to biotinylated 2nd antibodies and reacted for 5 minutes at 37° C. followed by additional reaction for 5 minutes at 37° C. with streptavidin-conjugated alkaline phosphatase added. Then, 5-bromo-4-chloro-3-indolyl-phosphate (BCIP) and nitro-blue-tetrazolium (NBT) were used as the phosphatase substrate to be incubated with the slices on the slide until proper colors became visible. Afterwards, the slices were again stained with nuclear fast red.

PCNA [4] = conditions: cirrhotic rats, 30 mg/kg, 3 times a week for 4 weeks; versus control or untreated cirrhotic rats
Experimental: Nuclear fractions of the liver from the control rats, cirrhotic rats and oltipraz administered (30 mg/kg, 3 times a week for 4 weeks) cirrhotic rats were dissolved in a diluting solution containing sodium dodecyl sulfate (SDS) to form a sample and stored at −70° C. After SDS-polyacrylamide gel electrophoresis, immunoblot analysis was carried out. The sample was fractionated by using 12% gel electrophoresis and electrically transferred to nitrocellulose membrane. The nitrocellulose membrane was incubated with polyclonal mouse anti-PCNA antibody (1:1000) (Santa Cruz Biotech) and then incubated again with horseradish peroxidase-conjugated secondary antibody. Lastly, ECL chemiluminescence kit manufactured by Amersham company was used to develop the band.

c-Met = conditions: cirrhotic rats, 30 mg/kg, 3 times a week for 4 weeks; versus un-administered rats
From the text: c-Met is a Hepatocyte Growth Factor (HGF) receptor, applicable in proliferation and differentiation of the liver cells. […] When c-Met is not appropriately present, even with the presence of HGF, liver tissues will not form.

C/EBP = conditions: hepatocytes isolated from cirrhotic rats incubated with oltipraz
cirrhotic rats [5] = conditions: index 0-3, untreated 1.7
From the text: (§1) Sprague-Dawley rats that were 6 weeks old and 140-160 g were used in the examples below.
Another representative clinical symptom of cirrhosis is the accumulation of ascites. […] The significance is indicated by ** p<0.01, compared to control and # p<0.05 compared to rats with cirrhosis.

cirrhotic rats [6] = conditions: 30 mg/kg, 3 times a week for 4 weeks
From the text: as §1
Ascites are formed when the synthesis of the blood plasma protein (especially albumin) is reduced in the liver tissues, bringing a disturbance in maintaining the equilibrium of the osmotic pressure in the blood. […] The significance is indicated by ** p<0.01, compared to control and # p<0.05 compared to rats with cirrhosis.

cirrhotic rats [7] = conditions: 3 times a week for 4 weeks, untreated approximately 56% of normal
From the text: as §1
Cirrhosis is not only responsible for diminishing of a liver's function, but also for atrophy of the liver tissues. […] Since weight loss accompanies cirrhosis, in order to standardize the test results, the weight of the brain, which is normally not affected by cirrhosis, was used as the comparative weight to obtain the changes in the weights. The significance is indicated by ** p<0.01, compared to control and # p<0.05 compared to rats with cirrhosis.

rats with cirrhosis [8] = conditions: 3 times a week for 4 weeks; for Fibrosis Scores / Knodell Scores: group with cirrhosis; for Fibrosis Scores: scale 0-4, untreated 3.8 ± 0.2; for Knodell Scores: untreated 14.0 ± 0.8
From the text: as §1
(§2) By continually administering rats with dimethylnitrosamine (DMN) 3 times a week for 4 weeks, test models of cirrhotic livers were achieved. At such time, the rats showing only indications of liver fibrosis were placed in a separate group from rats showing indications of cirrhosis, and the survival rates of rats with cirrhosis and rats with liver fibrosis were studied during the next 4 weeks.
The histopathological effect of oltipraz on cirrhosis was studied.
(§3) The curative effect of oltipraz on liver cirrhosis was histopathologically determined through fibrosis scores taken after Masson's trichrome staining and through Knodell scores which show the portal inflammation and the extent of fibrosis of the liver (FIG. 2, Table 1).
(§4) Each value is represented by the average ± standard deviation. The number of animals used was 5 to 10. The significance of each group is determined by the paired Student's t-test. The significance is indicated by * p<0.05, ** p<0.01 compared to rats with cirrhosis or liver fibrosis. […] Degree of fibrosis 0=Normal, 1=Presence of weak fibrous tissue, 2=Presence of moderate fibrous tissue, 3=Presence of obvious fibrous tissue, 4=Evidence of severe fibrosis. Sum of values from periportal bridging (Greatest=10), intralobular cell loss (Greatest=4), portal inflammation (Greatest=4), and fibrosis (Greatest=4) yields the Knodell score.

rats with cirrhosis [9] = conditions: for ALT in blood plasma / AST in blood plasma / Bilirubin in blood plasma / Cholesterol in blood plasma: group with cirrhosis; for ALT in blood plasma: untreated 138 ± 14, control 55 ± 4; for AST in blood plasma: untreated 275 ± 36, control 141 ± 18; for Bilirubin in blood plasma: untreated 2.7 ± 0.8, control 1.1 ± 0.1; for Cholesterol in blood plasma: untreated 152 ± 30, control 97 ± 6
Experimental: as §1
When the rats were administered with 15 mg/kg of oltipraz, 3 times a week for 4 weeks, the ALT and AST activity in the blood plasma was reduced, and when administered with 30 mg/kg, approximately 70% of the AST value lowered, showing a statistical significance (Table 2).
The amount of bilirubin in blood plasma is an indicator of the liver's capacity.
Each value is represented by the average ± standard deviation. The number of animals used was 8 to 11. The significance of each group is determined by the paired Student's t-test. The significance is indicated by * p<0.05, compared to control and # p<0.05 compared to rats with cirrhosis.

Thy1.1 and Flt-3 = conditions: cirrhotic rats, 30 mg/kg, 3 times a week for 4 weeks; compared to untreated cirrhotic rats
From the text: The cells, which regenerate to liver tissues, are known to originate from stem cells.

rats with cirrhosis [10] = conditions: cirrhotic rats, 30 mg/kg, 3 times a week for 4 weeks; without oltipraz 48% after 4 weeks
From the text: as §1, §2

rats with liver fibrosis [11] = conditions: 30 mg/kg 3 times a week
From the text: as §1, §2

cirrhotic rats [12] = conditions: 30 mg/kg, 3 times a week for 4 weeks; remark: listed apart in the source
From the text: as §1
The left side of FIG. 4b is a photograph of liver tissue, obtained after administration of oltipraz to cirrhotic rats, taken following Masson's trichrome staining.

rats with liver fibrosis [13] = conditions: group with fibrosis; for Fibrosis Scores: scale 0-4, untreated 2.2 ± 0.5; for Knodell Scores: untreated 6.0 ± 1.2
From the text: as §1, §2, §3, §4

C/EBP-β = conditions: rat hepatocytes, 30 μM for 6 hours
Experimental: Afterwards, to study whether oltipraz promotes translocation of C/EBP-β to the nucleus, rat hepatocytes were incubated with oltipraz at the concentration of 30 μM for 6 hours.

[14] = 15 mg/kg, 3 times a week for 4 weeks, 15 mg/kg
[15] = 15 mg/kg, 3 times a week for 4 weeks, listed as oltipraz, 15 mg/kg

## Cc1c(-c2cnccn2)ssc1=S [Oltipraz, 5-(2-pyrazinyl)-4-methyl-1,2-dithiol-3-thione]
C/EBP-β and C/EBP-α [1]
  amount of C/EBP-α in the nucleus of the liver cells: gradually increased
  amount of C/EBP-β in the nucleus of the liver cells: gradually increased
C/EBP-β and C/EBP-α [2]
  appearance of liver-enriched inhibitory protein (LIP): almost completely disappeared
  expression of C/EBP-α: noticeably recovered
  expression of C/EBP-β: increased
PCNA [3]
  occurrence of PCNA (cells with PCNA): approximately twice more frequent
PCNA [4]
  expression of PCNA (36 kDa band intensity): significant increase in the expression of PCNA
c-Met
  expression of c-Met: noticeably greater
C/EBP
  amount of C/EBP in the nucleus: no significant change was observed
Cirrhotic rats [5]; 15 mg/kg
  ascites formation index: 0.9
Cirrhotic rats [5]; 30 mg/kg
  ascites formation index: 0.4
Cirrhotic rats [6]
  amount of albumin in the blood plasma: normal albumin content was recovered
Cirrhotic rats [7]; 15 mg/kg
  liver weights: recovered almost to the normal weights
Cirrhotic rats [7]; 30 mg/kg
  liver weights: recovered almost to the normal weights
Rats with cirrhosis [8]; cirrhotic rats, 15 or 30 mg/kg
  accumulation of fibers in liver tissue: reduced in a dose-dependent manner
Rats with cirrhosis [8]; 15 mg/kg
  Fibrosis Scores: 2.9 ± 0.4
  Knodell Scores: 8.7 ± 1.1**
Rats with cirrhosis [8]; 30 mg/kg
  Fibrosis Scores: 2.8 ± 1.1*
  Knodell Scores: 6.8 ± 2.5**
Rats with cirrhosis [9]; cirrhotic rats treated with oltipraz (dose not given)
  total cholesterol level in blood plasma: did not show noticeable change
Rats with cirrhosis [9]; cirrhotic rats, 30 mg/kg
  AST value lowered: approximately 70%
Rats with cirrhosis [9]; cirrhotic rats, oltipraz administration (dose not given)
  amount of bilirubin in blood plasma: tended to be reduced
Rats with cirrhosis [9]; [14]
  ALT in blood plasma: 124 ± 47
  AST in blood plasma: 206 ± 24
Rats with cirrhosis [9]; [15]
  ALT in blood plasma: reduced
  AST in blood plasma: reduced
Rats with cirrhosis [9]; 15 mg/kg
  Bilirubin in blood plasma: 1.8 ± 0.4
  Cholesterol in blood plasma: 116 ± 9
Rats with cirrhosis [9]; 30 mg/kg
  Bilirubin in blood plasma: 1.4 ± 0.2
  ALT in blood plasma: 110 ± 39
  Cholesterol in blood plasma: 104 ± 7
  AST in blood plasma: 185 ± 22^#
Thy1.1 and Flt-3
  number of cells containing Thy1.1 and Flt-3: considerable decline
Rats with cirrhosis [10]
  survival rate: 83%
Rats with liver fibrosis [11]
  death of rats: no death
Cirrhotic rats [12]
  division of the liver cells: clearly shows the dividing cells
Rats with liver fibrosis [13]; 15 mg/kg
  Fibrosis Scores: 2.8 ± 0.4
  Knodell Scores: 7.0 ± 1.2
Rats with liver fibrosis [13]; 30 mg/kg
  Fibrosis Scores: 1.0 ± 0.0**
  Knodell Scores: 2.6 ± 0.4*
C/EBP-β
  translocation of C/EBP-β to the nucleus: clearly promoted translocation
